Test results: PubChem BioAssay (NCI)
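Cells were grown in 96-well plates and exposed to each compound for 48 hours at five concentrations; endpoints were interpolated linearly between bracketing concentrations, or set to the highest concentration if not reached. The concentration for full growth arrest is given as TGI.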

Tests used:
Assay in all cases: inhibition of tumour cell growth, NCI panel, 48 h
[1] = test system: UO-31 renal
[2] = test system: DMS 273 small cell lung
[3] = test system: COLO 205 colon
[4] = test system: KM12 colon
[5] = test system: HCC-2998 colon
[6] = test system: SN12C renal
[7] = test system: HOP-92 NSCLC
[8] = test system: UACC-257 melanoma
[9] = test system: SK-MEL-28 melanoma
[10] = test system: SF-295 CNS
[11] = test system: HL-60(TB) leukemia
[12] = test system: CAKI-1 renal
[13] = test system: NCI-H522 lung
[14] = test system: 786-0 renal
[15] = test system: LXFL 529 NSCLC
[16] = test system: OVCAR-8 ovarian
[17] = test system: SF-539 CNS
[18] = test system: OVCAR-5 ovarian
[19] = test system: A549 NSCLC
[20] = test system: SNB-19 CNS
[21] = test system: DMS 114 small cell lung
[22] = test system: RXF 393 renal
[23] = test system: OVCAR-3 ovarian
[24] = test system: SNB-78 CNS
[25] = test system: HT29 colon
[26] = test system: OVCAR-4 ovarian
[27] = test system: TK-10 renal
[28] = test system: NCI-H460 lung
[29] = test system: M14 melanoma
[30] = test system: U251 CNS
[31] = test system: ACHN renal
[32] = test system: SW-620 colon
[33] = test system: MALME-3M melanoma
[34] = test system: KM20L2 colon
[35] = test system: SR leukemia
[36] = test system: EKVX NSCLC
[37] = test system: LOX IMVI melanoma
[38] = test system: SF-268 CNS
[39] = test system: HOP-62 NSCLC
[40] = test system: SNB-75 CNS
[41] = test system: NCI-H226 lung
[42] = test system: SK-MEL-2 melanoma
[43] = test system: NCI-H23 lung
[44] = test system: MOLT-4 leukemia
[45] = test system: M19-MEL melanoma
[46] = test system: A498 renal
[47] = test system: SK-OV-3 ovarian
[48] = test system: K-562 leukemia
[49] = test system: DLD-1 colon
[50] = test system: SK-MEL-5 melanoma
[51] = test system: UACC-62 melanoma
[52] = test system: RPMI-8226 leukemia
[53] = test system: HCT-116 colon
[54] = test system: HCT-15 colon
[55] = test system: IGROV1 ovarian
[56] = test system: CCRF-CEM leukemia

For `c1ccc2nc(-c3ccc4c(c3)OCO4)ccc2c1`, the TGI [1] was 93.3 µM, the TGI [2] was 62.8 µM and the TGI [3] was > 100 µM. For the same compound, the TGI [4] was > 100 µM, the TGI [5] was > 100 µM and the TGI [6] was > 100 µM. The TGI [7] was 19 µM, the TGI [8] was 48.7 µM and the TGI [9] was > 100 µM. The TGI [10] was > 100 µM, the TGI [11] was > 100 µM and the TGI [12] was > 100 µM. For the same compound, the TGI [13] was > 100 µM, the TGI [14] was > 100 µM and the TGI [15] was > 100 µM. For the same compound, the TGI [16] was > 100 µM, the TGI [17] was > 100 µM and the TGI [18] was > 100 µM. For the same compound, the TGI [19] was > 100 µM, the TGI [20] was > 100 µM and the TGI [21] was 67.5 µM. The TGI [22] was 58.9 µM, the TGI [23] was 71.1 µM and the TGI [24] was > 100 µM. For the same compound, the TGI [25] was 79.7 µM, the TGI [26] was > 100 µM and the TGI [27] was > 100 µM. The TGI [28] was > 100 µM, the TGI [29] was > 100 µM and the TGI [30] was > 100 µM. The TGI [31] was > 100 µM, the TGI [32] was > 100 µM and the TGI [33] was 68 µM. The TGI [34] was > 100 µM, the TGI [35] was 43.9 µM and the TGI [36] was > 100 µM. The TGI [37] was 82.7 µM, the TGI [38] was > 100 µM and the TGI [39] was 79.5 µM. For the same compound, the TGI [40] was > 100 µM, the TGI [41] was 97.6 µM and the TGI [42] was > 100 µM. For the same compound, the TGI [43] was > 100 µM.

With `CCC1=C(CC)C1(C#N)[N+](=O)[O-]` the TGI [1] was > 100 µM, the TGI [2] was > 100 µM and the TGI [3] was > 100 µM. For the same compound, the TGI [4] was > 100 µM, the TGI [44] was > 100 µM and the TGI [6] was > 100 µM. The TGI [8] was > 100 µM, the TGI [45] was > 100 µM and the TGI [46] was > 100 µM. The TGI [10] was > 100 µM, the TGI [47] was > 100 µM and the TGI [11] was > 100 µM. For the same compound, the TGI [12] was > 100 µM, the TGI [13] was > 100 µM and the TGI [14] was > 100 µM. The TGI [15] was > 100 µM, the TGI [16] was > 100 µM and the TGI [17] was > 100 µM. For the same compound, the TGI [18] was > 100 µM, the TGI [19] was > 100 µM and the TGI [20] was > 100 µM. For the same compound, the TGI [21] was > 100 µM, the TGI [48] was > 100 µM and the TGI [49] was > 100 µM. The TGI [50] was > 100 µM, the TGI [23] was > 100 µM and the TGI [24] was > 100 µM. The TGI [25] was > 100 µM, the TGI [26] was > 100 µM and the TGI [27] was > 100 µM. The TGI [28] was > 100 µM, the TGI [29] was > 100 µM and the TGI [51] was > 100 µM. For the same compound, the TGI [52] was > 100 µM, the TGI [30] was > 100 µM and the TGI [31] was > 100 µM. The TGI [32] was > 100 µM, the TGI [53] was > 100 µM and the TGI [54] was > 100 µM. For the same compound, the TGI [33] was > 100 µM, the TGI [34] was > 100 µM and the TGI [55] was > 100 µM. The TGI [35] was > 100 µM, the TGI [36] was > 100 µM and the TGI [37] was > 100 µM. For the same compound, the TGI [38] was > 100 µM, the TGI [39] was > 100 µM and the TGI [56] was > 100 µM. For the same compound, the TGI [41] was > 100 µM, the TGI [42] was > 100 µM and the TGI [43] was > 100 µM.
